Experimental data from patent US8029764B2, “Methods for detection of colorectal cancer” (The Johns Hopkins University, priority 2001, dated 2011).

Tested on: colorectal tissue transcripts
Experiment: SAGE of normal, adenoma and cancer colorectal tissue (transcript tag counts)
Parameters: species or system human
Text: In an effort to identify potential molecular markers of early colorectal tumors, we have here analyzed gene expression in benign and malignant colorectal tumors in an unbiased and comprehensive fashion. We used SAGE to analyze global gene expression in normal, benign and malignant colorectal tissue. SAGE is a gene expression profiling method that associates individual mRNA transcripts with 15-base tags derived from specific positions near their 3′ termini (3). The abundance of each tag provides a quantitative measure of the transcript level present within the mRNA population studied. SAGE is not dependent on pre-existing databases of expressed genes, and therefore provides an unbiased view of gene expression profiles. For the current study, SAGE libraries derived from two samples of normal colonic epithelium, two colorectal adenomas, and two colorectal cancers were analyzed.
SAGE. For the initial SAGE^3 of benign tumors, fresh adenomas were obtained from surgical specimens derived from FAP patients. Adenomas from FAP patients were employed because of the ready availability of small lesions and the certainty of inactivation of the APC pathway which initiates the formation of the majority of sporadic tumors. After histopathological verification of the neoplastic nature of the lesion (>70% neoplastic cells), total RNA was isolated by solubilizing the tissue in RNAgents Lysis Buffer (Promega, Madison, Wis.) followed by ultracentrifugation over a cesium chloride gradient. mRNA selection was performed from the purified total RNA using oligo(dT) cellulose (Life Technologies, Gaithersburg, Md.). […] Tags were extracted from the raw sequence data and, after excluding repeated ditags, linker sequences, and tags from the polyrnorphic Major Histocompatibility loci, the resulting tag libraries were compared and statistical analysis performed using SAGE software, version 4.0. Data from the libraries are publicly available at the Uniform Resource Locator (URL) address for the http file type found on the www host server that has a domain name of ncbi.nlm.nih.gov, and a path to the directory SAGE, and detailed SAGE protocols are available at the Uniform Resource Locator (URL) address for the http file type found on the www host server that has a domain name of sagenet.org, and file name of sage_protocol.htn.

[1] = normal colorectal tissue library 1
[2] = normal colorectal tissue library 2

Row | Sequence | AD1 (SAGE tag count) (SAGE library AD1) | AD2 (SAGE tag count) (SAGE library AD2) | CA1 (SAGE tag count) (SAGE library CA1) | CA2 (SAGE tag count) (SAGE library CA2) | NC1 (SAGE tag count) (SAGE library NC1) | NC2 (SAGE tag count) (SAGE library NC2) | AD1 (SAGE tag count) (adenoma library 1) | AD2 (SAGE tag count) (adenoma library 2) | CA1 (SAGE tag count) (cancer library 1) | CA2 (SAGE tag count) (cancer library 2) | NC1 (SAGE tag count) [1] | NC2 (SAGE tag count) [2]
1 | ATTGGAGTGC (chemistry not fully specified) | 15 | 36 | 37 | 19 | 136 | 85 |  |  |  |  |  | 
2 | CCCCCTGCAT (chemistry not fully specified) | 0 | 0 | 0 | 0 | 5 | 4 |  |  |  |  |  | 
3 | TCAGCTGCAA (chemistry not fully specified) |  |  |  |  |  |  | 0 | 0 | 9 | 3 | 56 | 16
4 | GCTCTTCCCC (chemistry not fully specified; the letters are possibly those of the target site) | 1 | 2 | 2 | 0 | 9 | 21 |  |  |  |  |  | 
5 | AATAAAGGCT (chemistry not fully specified) | 3 | 7 | 3 | 4 | 25 | 11 |  |  |  |  |  | 
6 | AATGAGAAGG (chemistry not fully specified) | 0 | 0 | 1 | 0 | 11 | 3 |  |  |  |  |  | 
7 | ATGATGGCAC (chemistry not fully specified; the letters are possibly those of the target site) | 1 | 0 | 1 | 0 | 12 | 32 |  |  |  |  |  | 
8 | AGGTGACTGG (chemistry not fully specified) | 0 | 0 | 0 | 0 | 10 | 14 |  |  |  |  |  | 
9 | ATGGCACGGA (chemistry not fully specified; the letters are possibly those of the target site) | 1 | 1 | 3 | 0 | 6 | 21 |  |  |  |  |  | 
10 | ATCGTGGCGG (chemistry not fully specified) | 19 | 25 | 20 | 10 | 193 | 92 |  |  |  |  |  | 
11 | CTGGATCTGG (chemistry not fully specified; the letters are possibly those of the target site) | 3 | 9 | 5 | 10 | 21 | 21 |  |  |  |  |  | 
12 | GCAGGAGGTG (chemistry not fully specified; the letters are possibly those of the target site) | 0 | 0 | 0 | 1 | 2 | 13 |  |  |  |  |  | 
13 | AAATCTGGCA (chemistry not fully specified) | 2 | 4 | 2 | 0 | 16 | 15 |  |  |  |  |  | 
14 | CCTGCTGCAG (chemistry not fully specified) | 0 | 1 | 6 | 9 | 7 | 34 |  |  |  |  |  | 
15 | GCCGTGGAGA (chemistry not fully specified) | 4 | 11 | 7 | 7 | 32 | 23 |  |  |  |  |  | 
16 | CCTGCCCCCC (chemistry not fully specified) | 6 | 3 | 11 | 4 | 20 | 30 |  |  |  |  |  | 

Row | Sequence | AD1 (SAGE tag count) (SAGE library AD1) | AD2 (SAGE tag count) (SAGE library AD2) | CA1 (SAGE tag count) (SAGE library CA1) | CA2 (SAGE tag count) (SAGE library CA2) | NC1 (SAGE tag count) (SAGE library NC1) | NC2 (SAGE tag count) (SAGE library NC2) | AD1 (SAGE tag count) (adenoma library 1) | AD2 (SAGE tag count) (adenoma library 2) | CA1 (SAGE tag count) (cancer library 1) | CA2 (SAGE tag count) (cancer library 2) | NC1 (SAGE tag count) [1] | NC2 (SAGE tag count) [2]
17 | GGAGGCCGAG (chemistry not fully specified) | 5 | 0 | 2 | 5 | 13 | 9 |  |  |  |  |  | 
18 | ACCCACGTCA (chemistry not fully specified) | 3 | 5 | 3 | 1 | 22 | 10 |  |  |  |  |  | 
19 | GCAGGGCCTC (chemistry not fully specified) | 41 | 69 | 39 | 51 | 128 | 165 |  |  |  |  |  | 
20 | TAGACTAGCA (chemistry not fully specified) |  |  |  |  |  |  | 6 | 6 | 22 | 4 | 31 | 27
21 | CCCCCGCGGA (chemistry not fully specified) | 6 | 11 | 4 | 12 | 33 | 25 |  |  |  |  |  | 
22 | CCAGGGGAGA (chemistry not fully specified) | 24 | 22 | 10 | 20 | 45 | 66 |  |  |  |  |  | 
23 | TGCTCCTACC (chemistry not fully specified; the letters are possibly those of the target site) |  |  |  |  |  |  | 70 | 22 | 17 | 22 | 140 | 113
24 | CACCCCTGAT (chemistry not fully specified) | 58 | 58 | 13 | 36 | 73 | 169 |  |  |  |  |  | 
25 | TGGCCATCTG (chemistry not fully specified) |  |  |  |  |  |  | 8 | 7 | 3 | 4 | 30 | 24
26 | CGCTGTGGGG (chemistry not fully specified) | 19 | 8 | 8 | 6 | 58 | 53 |  |  |  |  |  | 
27 | TTGGGGTTTC (chemistry not fully specified) |  |  |  |  |  |  | 50 | 81 | 67 | 50 | 111 | 184
28 | ACCCCCCCGC (chemistry not fully specified) | 7 | 13 | 16 | 6 | 44 | 38 |  |  |  |  |  | 
29 | GCCCAGTGGC (chemistry not fully specified) | 8 | 15 | 2 | 5 | 51 | 0 |  |  |  |  |  | 
30 | GCCACGTGGA (chemistry not fully specified) | 5 | 2 | 7 | 1 | 19 | 16 |  |  |  |  |  | 
31 | CCTCCAGCTA (chemistry not fully specified) | 142 | 125 | 131 | 147 | 715 | 458 |  |  |  |  |  | 
32 | TGGCTACTTA (chemistry not fully specified) |  |  |  |  |  |  | 1 | 0 | 1 | 2 | 6 | 9
